One data set addresses CLDN18.1 (Homo sapiens, UniProt P56856). Nature of the data set: IMAB362 binding to other claudin family members.
The nature of data set [1]: Repeated dose toxicity study in cynomolgus monkeys. The class given is in vivo. The settings on record: up to 5 weekly applications of up to 100 mg/kg. The text has this:
(§1) This compartimentalization is lost upon malignant transformation rendering the epitope drugable by IMAB362.

Data set [2] in a line: Repeated dose toxicity study in mice. Format: in vivo. The note with it: weekly administration for 3 months, highest dose levels 400 mg/kg.
Description: as §1

Data set [3] relates to NUGC-4 cells expressing CLDN18.2. The data set can be described thus: IMAB362 ADCC with ZA/IL-2 cultivated PBMCs on NUGC-4 cells (luciferase). The class given is cell-based, human. The settings on record: PBMCs cultivated 14 days with ZA/IL-2, NUGC-4 targets. The method, then: Specific killing was determined in luciferase assays; cf. FIG. 14a. […] NUGC-4 served as target cells.

In data set [4] the test system is NCI-N87~CLDN18.2 xenograft tumors. The data set can be described thus: NCI-N87~CLDN18.2 gastric carcinoma xenografts, IMAB362 immunotherapy. Format: in vivo, nude mice. The note with it: 800 μg i.v. weekly. As to the method:
NCI-N87˜CLDN18.2 xenograft tumors were inoculated subcutaneously by injection of 1×10^7 NCI-N87˜CLDN18.2 cells into the flank of 8 nude mice (female, 6 weeks old) per treatment group. […] Intravenous administration was continued weekly for the whole observation time. Tumor size and animal health was monitored semi-weekly. […] The size of s.c. tumors was measured twice weekly (mean+SEM, ***p<0.001). […] Mice were sacrificed, when tumor reached a volume of 1400 mm^3.

The test system of data set [5] is CLS-103~cldn18.2 allograft tumors. Nature of the data set: Combination of IMAB362 and EOF on CLS-103~cldn18.2 allograft tumors. More on the design: species or system NMRI mice. The settings on record: mouse, in vivo. From the text: Tumor size and animal health were monitored semi-weekly. Mice were sacrificed, when tumor reached a volume of 1400 mm^3 or tumors became ulcerous.

In data set [6] the test system is HEK293~CLDN18.2 tumor xenografts. Nature of the data set: Treatment of advanced HEK293~CLDN18.2 tumor xenografts. Format: in vivo, nude mice. From the text:
Moreover, advanced tumor treatment experiments were initiated up to 9 days after tumor cell inoculation when tumors had reached volumes of about 60-120 mm^3.
Treatment of 9 to 10 mice per group was initiated when mean tumor volumes reached 88 mm^3 (62-126 mm^3). […] All mice in the groups treated with either PBS or isotype control died within 50-100 days. […] Three of these mice survived the entire observation period (FIG. 20). Importantly, antitumoral efficacy in vivo depends on the presence of the target on the tumor cells.

Data set [7] deals with CLDN18.2-positive cancer cell lines. Nature of the data set: IMAB362 treatment of mice bearing CLDN18.2-positive cancer cell lines. The class given is in vivo.

Experimental findings from patent US20180258180A1, “COMBINATION THERAPY INVOLVING ANTIBODIES AGAINST CLAUDIN 18.2 FOR TREATMENT OF CANCER” (Ganymed Pharmaceuticals AG, priority 2012, published 2018) are described below.

Sequence of CLDN18.1 (P56856 whole entry): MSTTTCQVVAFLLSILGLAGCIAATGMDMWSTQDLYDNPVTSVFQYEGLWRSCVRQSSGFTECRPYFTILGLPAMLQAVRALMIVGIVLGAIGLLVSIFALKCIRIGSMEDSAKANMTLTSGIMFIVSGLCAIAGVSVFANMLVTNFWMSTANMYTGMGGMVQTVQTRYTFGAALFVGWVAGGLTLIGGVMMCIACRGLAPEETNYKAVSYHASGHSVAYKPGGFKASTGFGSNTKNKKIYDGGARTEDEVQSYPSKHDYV

With “IMAB362: chimeric IgG1 antibody directed against CLDN18.2, developed by Ganymed Pharmaceuticals AG”, in the data set with CLDN18.1, the “binding to any other claudin family member including CLDN18.1” value was “does not bind”. For the same substance, the “tolerability of repeated doses i.v.” value in data set [1] and in data set [2] was “well tolerated” each time. The “IMAB362-dependent ADCC activity” value in data set [3] was “Strong”. For the same substance, the survival time entry in data set [4] is on record as “significantly (p<0.05) longer survival time”. Also, the tumor growth result in data set [4] (start 5 days after inoculation, versus saline) is reported as “inhibited highly significant (p<0.001)”. Moreover, the “tumor growth inhibition compared to saline control group” value in data set [5] is “no significant tumor growth inhibition”. Besides, in data set [6] (200 μg twice per week for 6 weeks, start at mean tumor volume 88 mm^3, versus 25 days), the median survival time stood at 47 days. Further, the “mice surviving the entire observation period” value in data set [6] (9 to 10 mice per group) is “Three”. Further, the survival result in data set [6] (advanced tumors) and in data set [7] was “survival benefit” throughout. The “mice showing regression of their tumor” value in data set [7] is listed as “up to 40%”.
